Experimental data: ChEMBL document CHEMBL6103583, “Purified Monascus Pigments: Biological Activities and Mechanisms of Action” (J Nat Prod, 2025)
Converted amounts (≈) assume the structure as drawn.

Columns and labels:
Klebsiella aerogenes = test: Antibacterial activity against Enterobacter aerogenes KCCM 12177 assessed as reduction in bacterial growth incubated for 12 hrs by broth micro-dilution method; format: functional
Staphylococcus aureus [1] = test: Antibacterial activity against Staphylococcus aureus KCCM 11817 assessed as reduction in bacterial growth incubated for 12 hrs by broth micro-dilution method; format: functional
Staphylococcus aureus [2] = test: Antibacterial activity against Staphylococcus aureus […] assessed as reduction in bacterial growth incubated for 12 hrs by broth micro-dilution method; format: functional
Bacillus subtilis = test: Antibacterial activity against Bacillus subtilis KCCM 11316 assessed as reduction in bacterial growth incubated for 12 hrs by broth micro-dilution method; format: functional
Enterococcus faecalis = test: Antibacterial activity against Enterococcus faecalis KCCM 11814 assessed as reduction in bacterial growth incubated for 12 hrs by broth micro-dilution method; format: functional
Haemophilus influenzae = test: Antibacterial activity against Haemophilus influenzae KCCM 11903 assessed as reduction in bacterial growth incubated for 12 hrs by broth micro-dilution method; format: functional
Proteus vulgaris = test: Antibacterial activity against Proteus vulgaris KCCM 11906 assessed as reduction in bacterial growth incubated for 12 hrs by broth micro-dilution method; format: functional
Pseudomonas aeruginosa = test: Antibacterial activity against Pseudomonas aeruginosa KCCM 11328 assessed as reduction in bacterial growth incubated for 12 hrs by micro-dilution method; format: functional
[3] = Antibacterial activity against Salmonella choleraesuis KCCM 11806 assessed as reduction in bacterial growth; format: functional, Salmonella enterica subsp. enterica serovar Choleraesuis; conditions: Salmonella enterica
Salmonella typhimurium = test: Antibacterial activity against Salmonella Typhimurium KCCM 11806 assessed as reduction in bacterial growth incubated for 12 hrs by micro-dilution method; format: functional, Salmonella enterica subsp. enterica serovar Typhimurium; conditions: Salmonella enterica
Shigella sonnei = test: Antibacterial activity against Shigella sonnei KCCM 40253 assessed as reduction in bacterial growth incubated for 12 hrs by micro-dilution method; format: functional
Aspergillus niger = test: Antifungal activity against Aspergillus niger KCCM 11239 assessed as reduction in […] incubated for 12 hrs by micro-dilution method; format: functional
Candida albicans = test: Antifungal activity against Candida albicans KCCM 10231 assessed as reduction in […] incubated for 12 hrs by micro-dilution method; format: functional
Penicillium citrinum = test: Antifungal activity against Penicillium citrinum KCCM 11663 assessed as reduction in […] incubated for 12 hrs by micro-dilution method; format: functional
Penicillium digitatum = test: Antifungal activity against Penicillium digitatum KCCM 60140 assessed as reduction in […] incubated for 12 hrs by micro-dilution method; format: functional
RAW264.7 [4] = test: Antiinflammatory activity against mouse RAW264.7 cells assessed as inhibition of LPS-NO production incubated for 24 hrs by Griess reagent based assay; format: functional, cell-based; conditions: RAW264.7, 24 h
RAW264.7 [5] = test: Antiinflammatory activity against mouse RAW264.7 cells assessed as inhibition of LPS-NO production by Griess reagent based assay; format: functional, cell-based
WiDr [6] = test: Antiproliferative activity against human WiDr cells assessed as reduction in cell growth incubated for 3 days by MTT assay; format: functional, cell-based; conditions: 72 h
HEp-2 [7] = test: Antiproliferative activity against human HEp-2 cells assessed as reduction in cell growth incubated for 3 days by MTT assay; format: functional, cell-based; conditions: HEp-2, 72 h
HEp-2 [8] = test: Antiproliferative activity against human HEp-2 cells assessed as reduction in cell viability incubated for 72 hrs by MTT assay; format: functional, cell-based; conditions: HEp-2, 72 h
WiDr [9] = test: Antiproliferative activity against human WiDr cells assessed as reduction in cell viability incubated for 72 hrs by MTT assay; format: functional, cell-based
AGS = test: Antiproliferative activity against human AGS cells assessed as reduction in cell viability incubated for 24 hrs by MTT assay; format: functional, cell-based
BGC-823 = test: Antiproliferative activity against human BGC-823 cells assessed as reduction in cell viability incubated for 24 hrs by MTT assay; format: functional, cell-based; conditions: BGC-823, 24 h
HeLa [10] = test: Antiproliferative activity against human HeLa cells assessed as reduction in cell viability incubated for 24 hrs by MTT assay; format: functional, cell-based
HeLa [11] = test: Antiproliferative activity against human HeLa cells assessed as reduction in cell viability incubated for 24 hrs under light irradiation by MTT assay; format: functional, cell-based; conditions: light or radiation study
HepG2 = test: Antiproliferative activity against human HepG2 cells assessed as reduction in cell viability incubated for 24 hrs by MTT assay; format: functional, cell-based; conditions: HepG2, 24 h
HT-29 = test: Antiproliferative activity against human HT-29 cells assessed as reduction in cell viability incubated for 24 hrs by MTT assay; format: functional, cell-based; conditions: HT-29, 24 h
MKN-45 = test: Antiproliferative activity against human MKN-45 cells assessed as reduction in cell viability incubated for 24 hrs by MTT assay; format: functional, cell-based; conditions: MKN-45, 24 h
SH-SY5Y = test: Antiproliferative activity against human SH-SY5Y cells assessed as reduction in cell viability incubated for 24 hrs by MTT assay; format: functional, cell-based

N[C@H](Cc1ccc(O)cc1)C(=O)O
MIC (Klebsiella aerogenes): 16 µg/mL (≈ 88.3 µM) | MIC (Staphylococcus aureus [1]): 16 µg/mL (≈ 88.3 µM) | MIC (Staphylococcus aureus [2]): 8 µg/mL (≈ 44.2 µM) | MIC (Bacillus subtilis): 4 µg/mL (≈ 22.1 µM) | MIC (Enterococcus faecalis): 4 µg/mL (≈ 22.1 µM) | MIC (Haemophilus influenzae): 16 µg/mL (≈ 88.3 µM) | MIC (Proteus vulgaris): 16 µg/mL (≈ 88.3 µM) | MIC (Pseudomonas aeruginosa): 16 µg/mL (≈ 88.3 µM) | MIC [3]: 4 µg/mL (≈ 22.1 µM) | MIC (Salmonella typhimurium): 4 µg/mL (≈ 22.1 µM) | MIC (Shigella sonnei): 8 µg/mL (≈ 44.2 µM) | MIC (Aspergillus niger): 4 µg/mL (≈ 22.1 µM) | MIC (Candida albicans): 16 µg/mL (≈ 88.3 µM) | MIC (Penicillium citrinum): 4 µg/mL (≈ 22.1 µM) | MIC (Penicillium digitatum): 32 µg/mL (≈ 177 µM)

C/C=C/C1=CC2=C/C(=C(/C#N)C(=O)CCCCC)C(C)(O)C(=O)C2=CO1 (configuration not stated)
IC50 (RAW264.7 [4]): 2.6 µM

C/C=C/C1=CC2=C(CO1)C(=O)[C@](C)(O)[C@@H](CC(=O)CCCCC)C2
IC50 (RAW264.7 [5]): 22.6 µM | IC50 (WiDr [6]): 55.3 µM | IC50 (HEp-2 [7]): 77.6 µM

C/C=C/c1cc2c(cn1)C(=O)[C@](C)(O)[C@@H](CC(=O)CCCCC)C2
IC50 (RAW264.7 [4]): 57.1 µM

C/C=C/C1=CC2=CC3=C(C(=O)CCCCC)C(=O)O[C@@]3(C)[C@@H](O)C2=CO1
IC50 (HEp-2 [8]): 14.8 µM | IC50 (WiDr [9]): 15.7 µM | IC50 (RAW264.7 [4]): 3.65 µM

C/C=C/C1=CC2=CC3=C(C(=O)CCCCC)C(=O)OC3(C)C(=O)C2=CN1 (configuration not stated)
IC50 (RAW264.7 [4]): 12.5 µM

C/C=C/C1=CC2=CC3=C(C(=O)CCCCCCC)C(=O)O[C@@]3(C)[C@@](O)(CC(C)=O)C2=CO1
IC50 (HEp-2 [8]): 8.7 µM | IC50 (WiDr [9]): 11 µM | IC50 (RAW264.7 [4]): 2.72 µM

C/C=C/C1=CC2=CC3=C(C(=O)CCCCC)C(=O)O[C@@]3(C)[C@@](O)(CC(C)=O)C2=CO1
IC50 (HEp-2 [8]): 10.4 µM | IC50 (WiDr [9]): 10.5 µM | IC50 (RAW264.7 [4]): 1.7 µM

C/C=C/C1=CC2=CC3=C(C(=O)CCCCC)C(=O)O[C@@]3(C)C(=O)C2=CO1
IC50 (HEp-2 [8]): 107 µM | IC50 (WiDr [9]): 109 µM | IC50 (AGS): 7.98 µM | IC50 (BGC-823): 12.6 µM | IC50 (HeLa [10]): 93.7 µM | IC50 (HeLa [11]): 24 µM | IC50 (HepG2): 44.2 µM | IC50 (HT-29): 36.7 µM | IC50 (MKN-45): 14.3 µM | IC50 (SH-SY5Y): 30.9 µM | IC50 (RAW264.7 [4]): 21.2 µM

CCCCCCCCCC(=O)[C@H]1C(=O)O[C@]2(C)C(=O)C=C3C=C(CC(C)OC(C)=O)OC=C3[C@H]12 (some centres not stated)
IC50 (RAW264.7 [4]): 16.6 µM
